Laboratory results reported in article PMC7926793, “Synthesis and Biological Evaluation of 1-(Diarylmethyl)-1H-1,2,4-triazoles and 1-(Diarylmethyl)-1H-imidazoles as a Novel Class of Anti-Mitotic Agent for Activity in Breast Cancer” (Pharmaceuticals, 2021).
“And” between values parts separate entries of the source, which are not always exact repeats. Equal values may be shown once.

Columns and labels:
Type in all cases: cell-based, human
OVCAR-3 = assay: NCI 60 cell line screen (Ovarian Cancer); conditions: OVCAR-3, single dose 10 µM
SF-268 = assay: NCI 60 cell line screen (CNS Cancer); conditions: SF-268, single dose 10 µM
DU-145 = assay: NCI 60 cell line screen (Prostate cancer); conditions: DU-145, single dose 10 µM
MDA-MB-231/ATCC = assay: NCI 60 cell line screen (Breast Cancer); conditions: single dose 10 µM
OVCAR-4 = assay: NCI 60 cell line screen (Ovarian Cancer); conditions: OVCAR-4, single dose 10 µM
NCI/ADR-RES = assay: NCI 60 cell line screen (Ovarian Cancer); conditions: single dose 10 µM
UACC-62 = assay: NCI 60 cell line screen (Melanoma); conditions: UACC-62, single dose 10 µM
NCI-H460 = assay: NCI 60 cell line screen (Non-Small Cell Lung Cancer); conditions: NCI-H460, single dose 10 µM
KM12 = assay: NCI 60 cell line screen (Colon Cancer); conditions: KM12, single dose 10 µM
HCT-116 = assay: NCI 60 cell line screen (Colon Cancer); conditions: HCT-116, single dose 10 µM
HOP-62 = assay: NCI 60 cell line screen (Non-Small Cell Lung Cancer); conditions: HOP-62, single dose 10 µM
SNB-19 = assay: NCI 60 cell line screen (CNS Cancer); conditions: SNB-19, single dose 10 µM
SNB-75 = assay: NCI 60 cell line screen (CNS Cancer); conditions: SNB-75, single dose 10 µM
NCI-H552 = assay: NCI 60 cell line screen (Non-Small Cell Lung Cancer); conditions: NCI-H552, single dose 10 µM
IGROV1 = assay: NCI 60 cell line screen (Ovarian Cancer); conditions: IGROV1, single dose 10 µM
MDA-MB-435 = assay: NCI 60 cell line screen (Melanoma); conditions: MDA-MB-435, single dose 10 µM
HOP-92 = assay: NCI 60 cell line screen (Non-Small Cell Lung Cancer); conditions: HOP-92, single dose 10 µM
RXF 393 = assay: NCI 60 cell line screen (Renal Cancer); conditions: RXF 393, single dose 10 µM
SF295 = assay: NCI 60 cell line screen (CNS Cancer); conditions: SF295, single dose 10 µM
ACHN = assay: NCI 60 cell line screen (Renal Cancer); conditions: single dose 10 µM
MOLT-4 = assay: NCI 60 cell line screen (Leukemia); conditions: MOLT-4, single dose 10 µM
MDA-MB-468 = assay: NCI 60 cell line screen (Breast Cancer); conditions: MDA-MB-468, single dose 10 µM
HS 578T = assay: NCI 60 cell line screen (Breast Cancer); conditions: single dose 10 µM
NCI-H226 = assay: NCI 60 cell line screen (Non-Small Cell Lung Cancer); conditions: NCI-H226, single dose 10 µM
HCT-2998 = assay: NCI 60 cell line screen (Colon Cancer); conditions: HCT-2998, single dose 10 µM
SK-MEL-28 = assay: NCI 60 cell line screen (Melanoma); conditions: SK-MEL-28, single dose 10 µM
786-0 = assay: NCI 60 cell line screen (Renal Cancer); conditions: 786-0, single dose 10 µM
CCRF-CEM = assay: NCI 60 cell line screen (Leukemia); conditions: single dose 10 µM
MALME-3M = assay: NCI 60 cell line screen (Melanoma); conditions: single dose 10 µM
NCI-H332M = assay: NCI 60 cell line screen (Non-Small Cell Lung Cancer); conditions: single dose 10 µM
SK-OV-3 = assay: NCI 60 cell line screen (Ovarian Cancer); conditions: SK-OV-3, single dose 10 µM
UACC-257 = assay: NCI 60 cell line screen (Melanoma); conditions: UACC-257, single dose 10 µM
HL-60 (TB) = assay: NCI 60 cell line screen (Leukemia); conditions: single dose 10 µM

Question: For `COc1ccc(C(c2cc(OC)c(OC)c(OC)c2)N2CCCC2)cc1` (stereo not drawn) [25g], which Growth percentage (OVCAR-3) is on record?
Answer: 66.63%

Question: And the Growth percentage (SF-268)?
Answer: 84.26%

Question: And the Growth percentage (DU-145)?
Answer: 103.12%

Question: And the Growth percentage (MDA-MB-231/ATCC)?
Answer: 80.82%

Question: And the Growth percentage (OVCAR-4)?
Answer: 101.25%

Question: And the Growth percentage (NCI/ADR-RES)?
Answer: 69.39%

Question: What about the Growth percentage (UACC-62) of the same compound?
Answer: 57.35%

Question: What about the Growth percentage (NCI-H460) of the same compound?
Answer: 84.31%

Question: And the Growth percentage (KM12)?
Answer: 43.91%

Question: And the Growth percentage (HCT-116)?
Answer: 62.27%

Question: What about the Growth percentage (HOP-62) of the same compound?
Answer: 79.46%

Question: What about the Growth percentage (SNB-19) of the same compound?
Answer: 90.50%

Question: And the Growth percentage (SNB-75)?
Answer: 84.06%

Question: And the Growth percentage (NCI-H552)?
Answer: 58.47%

Question: And the Growth percentage (IGROV1)?
Answer: 82.87%

Question: And the Growth percentage (MDA-MB-435)?
Answer: -21.80%

Question: What about the Growth percentage (HOP-92) of the same compound?
Answer: 85.48%

Question: What about the Growth percentage (RXF 393) of the same compound?
Answer: 103.13%

Question: What about the Growth percentage (SF295) of the same compound?
Answer: 69.71%

Question: And the Growth percentage (ACHN)?
Answer: 103.18%

Question: And the Growth percentage (MOLT-4)?
Answer: 78.09%

Question: And the Growth percentage (MDA-MB-468)?
Answer: 54.75%

Question: What about the Growth percentage (HS 578T) of the same compound?
Answer: 80.45%

Question: And the Growth percentage (NCI-H226)?
Answer: 87.61%

Question: And the Growth percentage (HCT-2998)?
Answer: 89.14%

Question: What about the Growth percentage (SK-MEL-28) of the same compound?
Answer: 80.08%

Question: What about the Growth percentage (786-0) of the same compound?
Answer: 93.40%

Question: What about the Growth percentage (CCRF-CEM) of the same compound?
Answer: 71.21%

Question: And the Growth percentage (MALME-3M)?
Answer: 85.32%

Question: And the Growth percentage (NCI-H332M)?
Answer: 87.51%

Question: And the Growth percentage (SK-OV-3)?
Answer: 77.46%

Question: And the Growth percentage (UACC-257)?
Answer: 74.57%

Question: What about the Growth percentage (HL-60 (TB)) of the same compound?
Answer: 35.51%

Question: With `COc1ccc(C(c2cc(OC)c(OC)c(OC)c2)N2CCCCC2)cc1` (stereo not drawn) [26b, 1-((4-Methoxyphenyl)(3,4,5-Trimethoxyphenyl)Methyl)Piperidine] as the compound, how does the Growth percentage (OVCAR-3) read?
Answer: 8.29%

Question: What about the Growth percentage (SF-268) of the same compound?
Answer: 47.22%

Question: And the Growth percentage (DU-145)?
Answer: 64.18%

Question: And the Growth percentage (MDA-MB-231/ATCC)?
Answer: 53.09%

Question: And the Growth percentage (OVCAR-4)?
Answer: 69.25%

Question: And the Growth percentage (NCI/ADR-RES)?
Answer: 23.95%

Question: And the Growth percentage (UACC-62)?
Answer: 18.17%

Question: And the Growth percentage (NCI-H460)?
Answer: 19.38%

Question: And the Growth percentage (KM12)?
Answer: 30.23%

Question: What about the Growth percentage (HCT-116) of the same compound?
Answer: 29.08%

Question: And the Growth percentage (HOP-62)?
Answer: 29.82%

Question: And the Growth percentage (SNB-19)?
Answer: 30.43%

Question: And the Growth percentage (SNB-75)?
Answer: 26.61%

Question: And the Growth percentage (NCI-H552)?
Answer: 19.85%

Question: What about the Growth percentage (IGROV1) of the same compound?
Answer: 47.13%

Question: What about the Growth percentage (MDA-MB-435) of the same compound?
Answer: -21.79%

Question: What about the Growth percentage (HOP-92) of the same compound?
Answer: 44.15%

Question: What about the Growth percentage (RXF 393) of the same compound?
Answer: 25.99%

Question: What about the Growth percentage (SF295) of the same compound?
Answer: 18.75%

Question: What about the Growth percentage (ACHN) of the same compound?
Answer: 50.89%

Question: And the Growth percentage (MOLT-4)?
Answer: 31.54%

Question: And the Growth percentage (MDA-MB-468)?
Answer: 9.32% and 9.3%

Question: And the Growth percentage (HS 578T)?
Answer: 16.61% and 16.6%

Question: What about the Growth percentage (NCI-H226) of the same compound?
Answer: 55.46%

Question: What about the Growth percentage (HCT-2998) of the same compound?
Answer: 79.59%

Question: And the Growth percentage (SK-MEL-28)?
Answer: 47.22%

Question: And the Growth percentage (786-0)?
Answer: 38.84%

Question: What about the Growth percentage (CCRF-CEM) of the same compound?
Answer: 29.91%

Question: What about the Growth percentage (MALME-3M) of the same compound?
Answer: 55.25%

Question: What about the Growth percentage (NCI-H332M) of the same compound?
Answer: 47.90%

Question: And the Growth percentage (SK-OV-3)?
Answer: 16.68%

Question: What about the Growth percentage (UACC-257) of the same compound?
Answer: 54.88%

Question: What about the Growth percentage (HL-60 (TB)) of the same compound?
Answer: 4.36%
